Assay results published in US20030050306A1, “Novel heteroaryl derivatives, their preparation and use” (H. Lundbeck A/S, priority 1999, published 2003).

Assays:
[1] = molecular target: T1, cloned human 5-HT1A receptors (Homo sapiens, UniProt P08908); assay: Inhibition of 3H-5-CT binding to human 5-HT1A receptors; conditions: cloned human 5-HT1A receptors in HeLa cells (HA7)
T1 construct: expressed in transfected cells; host or cells: HeLa cells (HA7)
T1 sequence (P08908 1-422): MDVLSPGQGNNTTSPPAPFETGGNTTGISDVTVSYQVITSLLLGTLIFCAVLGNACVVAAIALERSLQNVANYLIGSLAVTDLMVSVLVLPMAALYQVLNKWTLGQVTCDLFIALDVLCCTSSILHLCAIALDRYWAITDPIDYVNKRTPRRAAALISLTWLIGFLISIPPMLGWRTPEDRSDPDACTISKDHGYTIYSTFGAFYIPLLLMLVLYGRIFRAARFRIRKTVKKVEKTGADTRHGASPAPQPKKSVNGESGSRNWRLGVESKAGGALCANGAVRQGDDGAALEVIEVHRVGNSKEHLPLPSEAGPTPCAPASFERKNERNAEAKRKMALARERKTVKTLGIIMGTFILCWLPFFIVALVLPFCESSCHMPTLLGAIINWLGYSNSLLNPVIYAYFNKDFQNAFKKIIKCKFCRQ
Method in brief: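 Cloned human 5-HT1A receptors stably expressed in transfected HeLa cells (HA7); 40 μg cell homogenate incubated 15 min at 37° C in 50 mM Tris pH 7.7 with 3H-5-CT. Non-specific binding defined with 10 μM metergoline; bound radioligand separated by rapid GF/B filtration and counted.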

[2] = molecular target: T2, human cloned dopamine D4.2 receptors (Homo sapiens, UniProt P21917, DEL265-296); assay: Inhibition of the binding of 3H-YM-09151-2 to human dopamine D4 receptors; conditions: human cloned dopamine D4.2 receptors in CHO-cells
T2 construct: expressed in transfected cells; host or cells: CHO cells
T2 sequence (P21917 with tags, fused parts or gaps DEL265-296): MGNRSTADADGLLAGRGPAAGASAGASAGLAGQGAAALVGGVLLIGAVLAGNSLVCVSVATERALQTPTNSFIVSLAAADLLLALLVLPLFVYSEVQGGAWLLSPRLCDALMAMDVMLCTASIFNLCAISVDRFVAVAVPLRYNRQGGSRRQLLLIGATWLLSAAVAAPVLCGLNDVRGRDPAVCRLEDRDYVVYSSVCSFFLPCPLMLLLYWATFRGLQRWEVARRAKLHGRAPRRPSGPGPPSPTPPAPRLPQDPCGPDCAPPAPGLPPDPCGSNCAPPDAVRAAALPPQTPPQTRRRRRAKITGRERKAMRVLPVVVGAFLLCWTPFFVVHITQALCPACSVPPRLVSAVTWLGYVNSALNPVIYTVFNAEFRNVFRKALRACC
Method in brief: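 Radioligand displacement of [3H]YM-09151-2 (0.06 nM) from membranes of CHO cells expressing cloned human D4.2 receptors, measured in vitro.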

IC50 [1] [nM]	IC50 [2] [nM]	inhibition at 0.1 µM ([1]; at 100 nM) [%]	inhibition at 0.05 µM ([2]; at 50 nM) [%]	Structure (SMILES)	further results
1.1	5.9			Clc1cccc(Cl)c1OCCCN1CCN(c2cccc3c2OCCO3)CC1 [Compound 1b, 1-[3-(2,6-Dichloro-phenoxy)-propyl]-4-(2,3-dihydro-benzo[1,4]dioxin-5-yl)-piperazine]	
		78	84	c1ccc(SCCN2CCN(c3cccc4c3OCCO4)CC2)cc1 [Compound 7aa, 1-(2,3-Dihydro-benzo[1,4]dioxin-5-yl)-4-(2-phenylsulfanyl-ethyl)-piperazine]	
5.1	1.4			Cc1cccc(Cl)c1SCCCCN1CCN(c2cccc3c2OCCO3)CC1 [Compound 5av, 1-[4-(2-Chloro-6-methyl-phenylsulfanyl)-butyl]-4-(2,3-dihydro-benzo[1,4]dioxin-5-yl)-piperazine]	
31	11			Clc1cccc(Cl)c1SCCN1CCN(c2cccc3c2OCCO3)CC1 [Compound 3d, 1-[2-(2,6-Dichloro-phenylsulfanyl)-ethyl]-4-(2,3-dihydro-benzo[1,4]dioxin-5-yl)-piperazine]	
		84	87	Clc1cccc(SCCN2CCN(c3cccc4c3OCCO4)CC2)c1 [Compound 7au, 1-[2-(3-Chloro-phenylsulfanyl)-ethyl]-4-(2,3-dihydro-benzo[1,4]dioxin-5-yl)-piperazine]	
3.5	2			Fc1ccc(OCCCN2CCN(c3cccc4ccsc34)CC2)c(F)c1 [Compound 5ci, 1-Benzo[b]thiophen-7-yl-4-[3-(2,4-difluoro-phenoxy)-propyl]-piperazine]	
		96	96	Cc1cccc(C)c1SCCCCN1CCN(c2cccc3c2OCCO3)CC1 [Compound 7ac, 1-(2,3-Dihydro-benzo[1,4]dioxin-5-yl)-4-[4-(2,6-dimethyl-phenylsulfanyl)-butyl]-piperazine]	
	59	93		Fc1cc(Br)cc(F)c1OCCCN1CCN(c2cccc3ccsc23)CC1 [Compound 5cj, 1-Benzo[b]thiophen-7-yl-4-[3-(4-bromo-2,6-difluoro-phenoxy)-propyl]-piperazine]	
230	10			N#Cc1ccc(N2CCN(CCCOc3ccc(F)cc3Br)CC2)c2c1OCCO2 [Compound 6b, 8-{4-[3-(2-Bromo-4-fluoro-phenoxy)-propyl]-piperazin-1-yl}-2,3-dihydro-benzo[1,4]dioxine-5-carbonitrile]	
2.2	3.4			Fc1cc(Cl)c(OCCCN2CCN(c3cccc4c3OCCO4)CC2)c(Cl)c1 [Compound 5at, 1-[3-(2,6-Dichloro-4-fluoro-phenoxy)-propyl]-4-(2,3-dihydro-benzo[1,4]dioxin-5-yl)-piperazine]	
7.4	3.1			COc1c(Cl)cccc1SCCCCN1CCN(c2cccc3c2OCCO3)CC1 [Compound 5ag, 1-[4-(3-Chloro-2-methoxy-phenylsulfanyl)-butyl]-4-(2,3-dihydro-henzo[1,4]dioxin-5-yl)-piperazine]	
		81	64	COc1ccc(SCCN2CCN(c3cccc4c3OCCO4)CC2)cc1OC [Compound 7bg, 1-(2,3-Dihydro-benzo[1,4]dioxin-5-yl)-4-[2-(3,4-dimethoxy-phenylsulfanyl)-ethyl]-piperazine]	
		99	84	Cc1ccc(SCCCN2CCN(c3cccc4c3OCCO4)CC2)c(C)c1 [Compound 7aj, 1-(2,3-Dihydro-benzo[1,4]dioxin-5-yl)-4-[3-(2,4-dimethyl-phenylsulfanyl)-propyl]-piperazine]	
	9.9	18		CC1(C)Cc2cc(Cl)cc(N3CCN(CCCSc4c(Cl)cccc4Cl)CC3)c2O1 [Compound 5az, 1-(5-Chloro-2,2-dimethyl-2,3-dihydro-benzofuran-7-yl)-4-[3-(2,6-dichloro-phenylsulfanyl)-propyl]-piperazine]	
		90	75	Clc1ccccc1SCCN1CCN(c2cccc3c2OCCO3)CC1 [Compound 7av, 1-[2-(2-Chloro-phenylsulfanyl)-ethyl]-4-(2,3-dihydro-benzo[1,4]dioxin-5-yl)-piperazine]	
		82	96	Cc1ccccc1SCCCCN1CCN(c2cccc3c2OCCO3)CC1 [Compound 7bc, 1-(2,3-Dihydro-benzo[1,4]dioxin-5-yl)-4-(4-o-tolylsulfanyl-butyl)-piperazine]	
4.5	1.3			Cc1cc(F)ccc1OCCCN1CCN(c2cccc3c2OCCO3)CC1 [Compound 1e, 1-(2,3-Dihydro-benzo[1,4]dioxin-5-yl)-4-[3-(4-fluoro-2-methyl-phenoxy)-propyl]-piperazine]	
		93	98	FC(F)(F)c1ccccc1SCCCN1CCN(c2cccc3c2OCCO3)CC1 [Compound 7ak, 1-(2,3-Dihydro-benzo[1,4]dioxin-5-yl)-4-[3-(2-trifluoromethyl-phenylsulfanyl)-propyl]-piperazine]	
3.8			99	Clc1ccc(SCCCCN2CCN(c3cccc4c3OCCO4)CC2)c(Cl)c1 [Compound 7ar, 1-[4-(2,4-Dichloro-phenylsulfanyl)-butyl]-4-(2,3-dihydro-benzo[1,4]dioxin-5-yl)-piperazine]	
				Clc1ccc(Cl)c(SCCN2CCN(c3cccc4c3OCCO4)CC2)c1 [Compound 7at, 1-[2-(2,5-Dichloro-phenylsulfanyl)-ethyl]-4-(2,3-dihydro-henzo[1,4]dioxin-5-yl)-piperazine]	Inhibition of 3H-5-CT Binding % inhibition at 100 nM ([1]; at 100 nM): 88%; Inhibition of 3H-YM-09151-2 binding % inhibition at 50 nM ([2]; at 50 nM): 92%
		98	97	Clc1cccc(SCCCN2CCN(c3cccc4c3OCCO4)CC2)c1Cl [Compound 7al, 1-[3-(2,3-Dichloro-phenylsulfanyl)-propyl]-4-(2,3-dihydro-benzo[1,4]dioxin-5-yl)-piperazine]	
4	1.2			Fc1ccccc1OCCCN1CCN(c2cccc3c2OCCO3)CC1 [Compound 2c, 1-(2,3-Dihydro-benzo[1,4]dioxin-5-yl)-4-[3-(2-fluoro-phenoxy)-propyl]-piperazine]	
9.7	34			Fc1cc(Br)cc(F)c1OCCCCN1CCN(c2cccc3ccsc23)CC1 [Compound 5cc, 1-Benzo[b]thiophen-7-yl-4-[4-(4-bromo-2,6-difluoro-phenoxy)-butyl]-piperazine]	
		83	42	N#Cc1ccc(N2CCN(CCCOc3c(Cl)cccc3Cl)CC2)c2c1OCCO2 [Compound 5cl, 8-{4-[3-(2,6-Dichloro-phenoxy)-propyl]-piperazin-1-yl}-2,3-dihydro-benzo[1,4]dioxine-5-carbonitrile]	
		99	91	FC(F)(F)c1ccccc1SCCN1CCN(c2cccc3c2OCCO3)CC1 [Compound 7af, 1-(2,3-Dihydro-benzo[1,4]dioxin-5-yl)-4-[2-(2-trifluoromethyl-phenylsulfanyl)-ethyl]-piperazine]	
	12	14		Cc1cccc(Cl)c1SCCCCN1CCN(c2cc(Cl)cc3c2OCC3(C)C)CC1 [Compound 5ay, 1-(5-Chloro-3,3-dimethyl-2,3-dihydro-benzofuran-7-yl)-4-[4-(2-chloro-6-methyl-phenylsulfanyl)-butyl]-piperazine]	
		91	84	COc1ccc(OC)c(SCCCN2CCN(c3cccc4c3OCCO4)CC2)c1 [Compound 7bk, 1-(2,3-Dihydro-benzo[1,4]dioxin-5-yl)-4-[3-(2,5-dimethoxy-phenylsulfanyl)-propyl]-piperazine]	
		82	75	FC(F)(F)c1ccccc1OCCN1CCN(c2cccc3c2OCCO3)CC1 [Compound 7ae, 1-(2,3-Dihydro-benzo[1,4]dioxin-5-yl)-4-[2-(2-trifluoromethyl-phenoxy)-ethyl]-piperazine]	
4.4	4			Clc1ccc(OCCCN2CCN(c3cccc4c3OCCO4)CC2)cc1 [Compound 2a, 1-[3-(4-Chloro-phenoxy)-propyl]-4-(2,3-dihydro-benzo[1,4]dioxin-5-yl)-piperazine]	
